From patent publication US8802679B2, “Glycine compound” (Astellas Pharma Inc., priority 2009, dated 2014)
Structures can show the parent of a compound that is named as a salt.

Experiments:
[1] = test system: VAP-1 enzyme activity in plasma; assay: Plasma VAP-1 enzyme activity after oral administration to rats (radio-enzyme assay); assay type: in vivo, Wistar male rats; details: rat, oral 1 mg/kg; for Inhibition Ratio (%) of plasma VAP-1 activity, 1 h: 1 h after administration; for Inhibition Ratio (%) of plasma VAP-1 activity, 3 h: 3 h after administration; for Inhibition Ratio (%) of plasma VAP-1 activity, 6 h: 6 h after administration; for Inhibition Ratio (%) of plasma VAP-1 activity, 12 h: 12 h after administration
Description: Eight-week to twelve-week Wistar male rats were fasted for 20 hours, and orally administered with a test drug (1 mg/1 kg). Heparin blood collection from the tail vein was performed immediately before the administration, and at 1 h, 3 h, 6 h, and 12 h after the administration. The resulting blood was subjected to centrifugation at 14000 rpm for 5 minutes to separate plasma, and the VAP-1 enzyme activity in the resulting plasma was measured by a radio-enzyme assay method.
For the radio-enzyme assay method, ^14C-benzylamine which is a synthetic substrate (10 μM) was reacted with the resulting plasma at 37° C., and the resulting metabolite was extracted with a mixture of toluene/ethyl acetate. The radioactivity was measured and taken as a VAP-1 enzyme activity in the plasma. The effect of the test drug was calculated from the ratio (%) of the VAP-1 activity after the administration of the test drug relative to the VAP-1 activity in the plasma immediately before the administration (100%).

[2] = molecular target: rat VAP-1 enzyme (SSAO) (Rattus norvegicus (Rat), UniProt O08590); assay: Inhibitory effect on rat VAP-1 enzyme (SSAO) activity, radiochemistry-enzymatic assay with 14C-benzylamine; assay type: biochemical; details: enzyme from CHO cells expressing rat VAP-1; 14C-benzylamine 1×10^−5 mol/L
Description: Inhibitory Effect of Compound on Rat VAP-1 Enzyme (SSAO) Activity
(§1) A rat VAP-enzyme 1 (SSAO) activity was measured by a radiochemistry-enzymatic assay using ^14C-benzylamine as an artificial substrate. An enzyme suspension prepared from CHO (Chinese Hamster Ovary) cells stably expressing a rat VAP-enzyme 1 (SSAO) was preincubated with the compound of the present invention in a 96-well microplate at room temperature for 30 minutes. Subsequently, the enzyme suspension was incubated with ^14C-benzylamine (a final concentration of 1×10^−5 mol/L) to a final volume of […] at 37° C. for 1 hour. The enzymatic reaction was stopped by the addition of 2 mol/L (50 μL) of citric acid. The oxidation products were extracted directly in a 200-μL toluene scintillator, and the radioactivity was measured with a scintillation spectrometer.
(§2) In addition, the inhibitory activity is expressed in IC50 (nmol/L).

[3] = molecular target: human VAP-1 enzyme (SSAO) (Homo sapiens (Human), UniProt Q16853); assay: Inhibitory effect on human VAP-1 enzyme (SSAO) activity, radiochemistry-enzymatic assay with 14C-benzylamine; assay type: biochemical; details: enzyme from CHO cells expressing human VAP-1; 14C-benzylamine 1×10^−5 mol/L
Description: Inhibitory Effect of Compound on Human VAP-1 Enzyme (SSAO) Activity
as §1, with “human VAP-1 enzyme” for “rat VAP-enzyme 1”
as §2

Chain of human VAP-1 enzyme (SSAO) (Q16853 whole entry): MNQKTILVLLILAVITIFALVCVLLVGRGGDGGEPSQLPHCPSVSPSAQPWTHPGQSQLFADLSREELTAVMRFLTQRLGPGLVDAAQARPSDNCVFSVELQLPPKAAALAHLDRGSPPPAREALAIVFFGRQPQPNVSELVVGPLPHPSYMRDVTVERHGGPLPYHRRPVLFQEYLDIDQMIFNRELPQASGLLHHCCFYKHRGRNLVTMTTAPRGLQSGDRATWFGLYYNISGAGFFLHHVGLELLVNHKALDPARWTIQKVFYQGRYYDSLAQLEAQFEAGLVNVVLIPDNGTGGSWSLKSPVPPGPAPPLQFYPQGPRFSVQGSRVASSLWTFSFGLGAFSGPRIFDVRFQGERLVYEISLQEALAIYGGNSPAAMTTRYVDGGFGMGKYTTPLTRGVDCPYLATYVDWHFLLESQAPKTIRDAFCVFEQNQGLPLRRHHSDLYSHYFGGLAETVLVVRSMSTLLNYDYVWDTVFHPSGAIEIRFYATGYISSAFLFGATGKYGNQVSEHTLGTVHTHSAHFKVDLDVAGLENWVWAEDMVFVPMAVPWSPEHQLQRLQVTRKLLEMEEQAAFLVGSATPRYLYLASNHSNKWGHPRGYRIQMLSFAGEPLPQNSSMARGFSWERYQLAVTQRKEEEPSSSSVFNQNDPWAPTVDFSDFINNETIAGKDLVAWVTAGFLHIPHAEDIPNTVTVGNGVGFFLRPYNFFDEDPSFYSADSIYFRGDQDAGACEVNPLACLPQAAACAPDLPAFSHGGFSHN
Chain of rat VAP-1 enzyme (SSAO) (O08590 whole entry): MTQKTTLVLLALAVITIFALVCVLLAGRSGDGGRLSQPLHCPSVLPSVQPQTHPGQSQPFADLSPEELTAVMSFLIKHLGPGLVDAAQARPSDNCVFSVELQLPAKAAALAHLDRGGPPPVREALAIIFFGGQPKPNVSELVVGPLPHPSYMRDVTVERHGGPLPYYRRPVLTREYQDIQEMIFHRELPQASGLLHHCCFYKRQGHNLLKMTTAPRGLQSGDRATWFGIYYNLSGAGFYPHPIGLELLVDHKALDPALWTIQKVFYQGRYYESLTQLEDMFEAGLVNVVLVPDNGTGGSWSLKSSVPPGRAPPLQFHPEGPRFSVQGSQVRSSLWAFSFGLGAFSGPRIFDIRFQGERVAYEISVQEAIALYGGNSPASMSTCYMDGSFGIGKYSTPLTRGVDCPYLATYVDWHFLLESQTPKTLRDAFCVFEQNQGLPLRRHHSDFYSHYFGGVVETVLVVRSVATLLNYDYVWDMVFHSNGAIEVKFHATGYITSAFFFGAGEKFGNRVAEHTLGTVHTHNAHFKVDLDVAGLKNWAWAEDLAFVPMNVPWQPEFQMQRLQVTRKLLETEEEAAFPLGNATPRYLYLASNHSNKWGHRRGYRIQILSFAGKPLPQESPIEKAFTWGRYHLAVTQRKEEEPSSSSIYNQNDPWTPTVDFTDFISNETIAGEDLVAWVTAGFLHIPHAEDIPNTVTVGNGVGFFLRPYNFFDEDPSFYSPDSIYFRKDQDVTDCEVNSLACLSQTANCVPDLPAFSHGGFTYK

Compound	Inhibition Ratio (%) of plasma VAP-1 activity, 1 h [1]	Inhibition Ratio (%) of plasma VAP-1 activity, 3 h [1]	Inhibition Ratio (%) of plasma VAP-1 activity, 6 h [1]	Inhibition Ratio (%) of plasma VAP-1 activity, 12 h [1]	IC50 [2]	IC50 [3]
Cc1cc(CCC(=O)O)cnc1N1CCN(c2ncc(-c3cccc(CN(C)C(=O)CN)c3)cn2)CC1 [Ex 66]	78%	81%	74%	67%	–	–
CN(Cc1cccc(-c2cnc(N3CCCC3)nc2)c1)C(=O)CN [Ex 75]	78%	58%	38%	24%	3.6 nM	49 nM
C[C@@H]1CN(c2ncc(-c3cccc(CN(C)C(=O)CN)c3)cn2)C[C@H](C)O1 [Ex 78]	31%	18%	3%	−4%	–	–
CN(Cc1cccc(-c2cnc(N3CCOC(CO)C3)nc2)c1)C(=O)CN (stereo not shown) [Ex 79]	24%	21%	15%	14%	34 nM	66 nM
C[C@@H]1CN(c2ccc(-c3cccc(CN(C)C(=O)CN)c3)cn2)C[C@H](C)O1 [Ex 80]	48%	43%	26%	21%	39 nM	81 nM
CN(Cc1cccc(-c2cnc(N3CCC(O)CC3)nc2)c1)C(=O)CN [Ex 84]	16%	20%	17%	–	15 nM	140 nM
Cc1ncccc1N1CCN(c2ncc(-c3cccc(CN(C)C(=O)CN)c3)cn2)CC1 [Ex 91]	68%	68%	68%	44%	12 nM	18 nM
CN(Cc1cccc(-c2cnc(N3Cc4cccnc4C3)nc2)c1)C(=O)CN [Ex 95]	70%	67%	71%	21%	5.8 nM	11 nM
Cc1nc2c(s1)CN(c1ncc(-c3cccc(CN(C)C(=O)CN)c3)cn1)CC2 [Ex 102]	65%	62%	71%	40%	12 nM	20 nM
CN(Cc1cccc(-c2cnc(N3CCN(c4ncccc4Cl)CC3)nc2)c1)C(=O)CN [Ex 147]	70%	79%	75%	66%	44 nM	72 nM
CN(Cc1cccc(-c2cnc(N3CCC(c4cccnc4)CC3)nc2)c1)C(=O)CN [Ex 190]	42%	48%	41%	11%	19 nM	23 nM
CN(Cc1cccc(-c2cnc(N3CC=C(c4cccnc4)CC3)nc2)c1)C(=O)CN [Ex 191]	35%	43%	48%	20%	14 nM	7 nM
CN(Cc1cccc(-c2cnc(N3CCS(=O)(=O)CC3)nc2)c1)C(=O)CN [Ex 216]	25%	−7%	15%	25%	40 nM	90 nM
Cc1cccnc1N1CCN(c2ncc(-c3cccc(CN(C)C(=O)CN)c3)cn2)CC1 [Example 3, N-methyl-N-(3-{2-[4-(3-methylpyridin-2-yl)piperazin-1-yl]pyrimidin-5-yl}benzyl)glycinamide L-tartrate]	65%	77%	71%	47%	22 nM	32 nM
CN(Cc1cccc(-c2cnc(N3CC[C@H](F)C3)nc2)c1)C(=O)CN [Example 16]	83%	83%	53%	42%	7.4 nM	49 nM
Cc1cc(/C=C/C(=O)O)cnc1N1CCN(c2ncc(-c3cccc(CN(C)C(=O)CN)c3)cn2)CC1 [Example 19, (2E)-3-(6-{-4-[5-(3-{[glycyl(methyl)amino]methyl}phenyl)pyrimidin-2-yl]piperazin-1-yl}-5-methylpyridin-3-yl)acrylic acid dihydrochloride]	84%	79%	75%	63%	6.9 nM	6.9 nM
CN(Cc1cccc(-c2cnc(N3CCN(c4ncc(C(=O)O)cc4Cl)CC3)nc2)c1)C(=O)CN [Example 32]	68%	70%	58%	45%	10 nM	18 nM
CN(Cc1cccc(-c2cnc(N3CCN(c4ncc(/C=C/C(=O)O)cc4Cl)CC3)nc2)c1)C(=O)CN [Example 33]	84%	87%	97%	83%	21 nM	31 nM
CN(Cc1cccc(-c2cnc(N3CCC(N4CCOCC4)CC3)nc2)c1)C(=O)CN [Example 51]	30%	37%	43%	32%	21 nM	48 nM
